Experiment: molar heat capacity at saturation pressure; xn = mol fraction of the nth substance listed

CCCCn1cc[n+](C)c1.Cc1ccc(S(=O)(=O)[O-])cc1 [1-butyl-3-methylimidazolium tosylate] + O
molar heat capacity [J/K/mol]
Conditions | Crystal | Metastable crystal
78.15 K, x1 = 0.83 | 130.09 | –
78.19 K, x1 = 0.83 | – | 130.61
80.13 K, x1 = 0.83 | 132.44 | –
80.17 K, x1 = 0.83 | – | 132.96
81.97 K, x1 = 0.83 | 134.26 | –
82.01 K, x1 = 0.83 | – | 135.05
83.83 K, x1 = 0.83 | 136.35 | –
83.86 K, x1 = 0.83 | – | 137.39
85.69 K, x1 = 0.83 | 138.43 | –
85.72 K, x1 = 0.83 | – | 139.48
87.56 K, x1 = 0.83 | 140.78 | –
87.59 K, x1 = 0.83 | – | 141.82
89.44 K, x1 = 0.83 | 142.87 | –
89.46 K, x1 = 0.83 | – | 144.17
91.33 K, x1 = 0.83 | 144.95 | –
91.34 K, x1 = 0.83 | – | 146.26
93.22 K, x1 = 0.83 | 147.04 | –
93.23 K, x1 = 0.83 | – | 148.6
95.13 K, x1 = 0.83 | 149.12 | 150.69
97.03 K, x1 = 0.83 | – | 153.03
97.04 K, x1 = 0.83 | 150.95 | –
98.94 K, x1 = 0.83 | – | 155.38
98.95 K, x1 = 0.83 | 153.03 | –
100.85 K, x1 = 0.83 | – | 157.47
100.88 K, x1 = 0.83 | 155.12 | –
102.77 K, x1 = 0.83 | – | 159.81
102.8 K, x1 = 0.83 | 156.94 | –
104.69 K, x1 = 0.83 | – | 161.9
104.74 K, x1 = 0.83 | 159.03 | –
106.61 K, x1 = 0.83 | – | 164.24
106.68 K, x1 = 0.83 | 161.12 | –
108.55 K, x1 = 0.83 | – | 166.33
108.63 K, x1 = 0.83 | 163.2 | –
110.48 K, x1 = 0.83 | – | 168.68
110.57 K, x1 = 0.83 | 165.03 | –
112.41 K, x1 = 0.83 | – | 170.76
112.53 K, x1 = 0.83 | 167.11 | –
114.35 K, x1 = 0.83 | – | 173.11
114.48 K, x1 = 0.83 | 169.2 | –
116.29 K, x1 = 0.83 | – | 175.19
116.44 K, x1 = 0.83 | 171.02 | –
118.23 K, x1 = 0.83 | – | 177.54
118.4 K, x1 = 0.83 | 173.11 | –
120.18 K, x1 = 0.83 | – | 179.89
120.37 K, x1 = 0.83 | 175.19 | –
122.12 K, x1 = 0.83 | – | 182.23
122.34 K, x1 = 0.83 | 177.02 | –
124.07 K, x1 = 0.83 | – | 184.32
124.3 K, x1 = 0.83 | 179.1 | –
126.01 K, x1 = 0.83 | – | 186.66
126.27 K, x1 = 0.83 | 181.19 | –
127.96 K, x1 = 0.83 | – | 189.01
128.25 K, x1 = 0.83 | 183.28 | –
129.91 K, x1 = 0.83 | – | 191.36
130.22 K, x1 = 0.83 | 185.36 | –
131.86 K, x1 = 0.83 | – | 193.7
132.19 K, x1 = 0.83 | 187.45 | –
133.81 K, x1 = 0.83 | – | 196.05
134.16 K, x1 = 0.83 | 189.79 | –
134.57 K, x1 = 0.3 | 80.15 | –
135.75 K, x1 = 0.83 | – | 198.4
136.14 K, x1 = 0.83 | 192.14 | –
137.46 K, x1 = 0.3 | 81.31 | –
137.7 K, x1 = 0.83 | – | 201
138.11 K, x1 = 0.83 | 194.75 | –
139.65 K, x1 = 0.83 | – | 203.09
140.08 K, x1 = 0.83 | 197.88 | –
140.19 K, x1 = 0.3 | 82.47 | –
141.59 K, x1 = 0.83 | – | 205.7
142.04 K, x1 = 0.83 | 201.53 | –

Source: the NIST ThermoML archive (doi:10.1021/je700152c)
